# Measurements reported in patent US20080026076A1 (priority 2003, published 2008).
# “Also recorded” adds a separate entry of the source. Marks after values point to notes of the source that are not given here.
# Key:
# ERK1/2 = ERK1/2 signaling status in left ventricle, immunoblot; assay type: in vivo, rat; settings: AAC rats fed supplemental quercetin
# Experimental: Determination of ERK1/2 and Akt signaling status (FIGS. 4A & 4B). All extraction procedures were performed at 4° C. […] After homogenization, the samples were sonicated twice on ice and centrifuged at 11,000×g for 10 min. at 4° C. Supernatants were recovered and stored at −80° C. for subsequent immunoblotting. Protein concentration of whole heart cell lysate was determined using a Bio-Rad Protein assay (Bio-Rad, Hercules, Calif.) with bovine serum albumin (BSA) as a standard.
# [1] = test system: prehypertensive and stage 1 hypertensive human subjects; assay: Randomized, placebo-controlled, double-blind crossover trial: blood pressure; assay type: in vivo; settings: for Diastolic blood pressure, Endpoint / MAP, Endpoint / Systolic blood pressure, Endpoint: end of 4-week quercetin phase, 730 mg/day, mean ± SEM; for quercetin induced-lowering of systolic blood pressure: change from baseline
# Description: Systemic markers of oxidant load also were examined as secondary outcomes to determine if reductions in blood pressure were associated with lower indices of oxidative stress. This study was approved by the University of Utah Human Use Review Committee, University of Utah Institutional Review Board, and written informed consent was obtained from each participant. Recruitment efforts in the greater Salt Lake City area targeted males and females with prehypertension (120-139 mmHg systolic/80-89 mmHg diastolic) and Stage 1 hypertension (140-159 mmHg systolic/90-99 mmHg diastolic) as defined by The 7th Report Of The Joint National Committee On Prevention, Detection, Evaluation, And Treatment Of High Blood Pressure (32). […] The secondary hypothesis was that quercetin-induced reductions in blood pressure would be associated with lower indices of systemic oxidant stress. […] A 14-day washout period separated the two phases. Subjects were randomly assigned to begin either the quercetin or the placebo phase first. […] Clinic visits were conducted on overnight-fasted subjects in the morning hours at the beginning and end of the placebo and quercetin supplementation phases. Subjects were instructed not to exercise prior to their appointments. […] Blood pressure was a primary outcome variable and was obtained at each clinic visit by a trained observer using an Omron random zero automatic blood pressure analyzer as previously described (35). Each participant sat quietly for 5-10 minutes, after which their arm was placed at heart level and blood pressure and pulse rate were determined at least three times in 3-5 minute intervals. If blood pressure varied among these determinations by more than 10 mmHg, three additional trials were performed. The accumulated measurements then were averaged to determine overall systolic and diastolic pressure and pulse rate for each subject.
# [2] = 30 mg/kg quercetin (p.o.) in rats (ref. 61); cited from earlier work
# PKC α, βI, ε, δ = assay: PKC isoform activation in left ventricle, Western blots; assay type: in vivo, rat; settings: between all groups (SH, AAC, SHQ, AACQ)
# Description: Following the experimental period, rats were sacrificed, left ventricles were homogenized, and cytosolic & membrane cell fractions isolated using differential centrifugation as previously described (Jalili et al., 1999). Immunobloting using standard protocols was used to assess PKC distribution. […] Increased abundance in membrane bound fractions is indicative of PKC activation.
# Western blotting, transfer and densitometry: Electrophoresis and transfer of proteins to PVDF membranes were done as previously described (18, 19). Primary antibody directed against PKC α, βI, βII, δ, and ε (Santa Cruz Biotechnology, Santa Cruz, Calif.) were incubated overnight at 4° C. in a 1:1000 dilution. Antibodies directed against phospho ERK 1/2, phospho JNK, ph c-Raf (Cell Signal Technology, Beverly, Mass.), and phospho PKC P (Santa Cruz Biotechnology, Santa Cruz, Calif.), were incubated at a 1:1000 dilution for 48 h at 4° C. in 5% BSA Tris buffer with 0.05% Tween-20. Secondary antibody conjugated to horseradish peroxidase (goat anti rabbit, (Cell Signal Technology, Beverly, Mass.)) was incubated for 1 h at 1:10,000 dilution. Signals were visualized by enhanced chemiluminescence (Cell Signal Technology, Beverly, Mass.). Relative band density of immunoblots on film were measured with a scanner using NIH 1.63 image software (National Institutes of Health, Rockville, Md.).
# [3] = Plasma antioxidant reserve (PAR); assay type: in vivo, human; settings: for PAR, Endpoint: end of quercetin phase
# Experimental: Blood samples were collected after blood pressure was measured. Blood was collected by antecubital venipuncture from fasting subjects into sodium heparin tubes (Becton Dickinson, N.J., USA). Collected blood was immediately stored on ice and centrifuged within 10 minutes at 4° C. for 15 minutes at 2500 g as previously described (36). […] Ex-vivo amplification of isoprostanes was accomplished by introducing a source of free radicals (3-morpholinosydnonimine, SIN-1) into the blood plasma to induce oxidation of lipoproteins (39). Uric acid, a major water soluble antioxidant present in plasma, was removed using uricase prior to introduction of SIN-1 so that any protection provided by other antioxidants could be measured. Therefore, PAR measures the non-urate antioxidant capacity, or antioxidant power, of blood.
# [4] = test system: NE precontracted aortic segments; assay: Vascular reactivity in segments of aorta, wire-type myograph; assay type: in vivo, rat
# Experimental: Animals are anesthetized, the heart and aorta excised, and vascular reactivity is assessed in segments of aorta using a wire-type myograph.
# [5] = Trial: body mass, heart rate, adverse effects; assay type: in vivo, human
# Experimental: A 14-day washout period separated the two phases. Subjects were randomly assigned to begin either the quercetin or the placebo phase first. […] Clinic visits were conducted on overnight-fasted subjects in the morning hours at the beginning and end of the placebo and quercetin supplementation phases. Subjects were instructed not to exercise prior to their appointments. […] Blood pressure was a primary outcome variable and was obtained at each clinic visit by a trained observer using an Omron random zero automatic blood pressure analyzer as previously described (35). Each participant sat quietly for 5-10 minutes, after which their arm was placed at heart level and blood pressure and pulse rate were determined at least three times in 3-5 minute intervals. If blood pressure varied among these determinations by more than 10 mmHg, three additional trials were performed. The accumulated measurements then were averaged to determine overall systolic and diastolic pressure and pulse rate for each subject. Nearly 1000 patients were interviewed and screened for eligibility. […] From this initial screening, 204 were evaluated in more detail at a subsequent clinic visit to determine if all inclusion/exclusion criteria were met, and that blood pressure was within the study limits (FIG. 6). […]
# [6] = test system: rats with abdominal aortic constriction (AAC) or sham operated; assay: Post-sacrifice morphometric measurements (body, heart and organ weights, heart rate) to assess cardiac hypertrophy; assay type: in vivo, rat; settings: for Heart wt.: quercetin diet, mean ± SEM
# Description: In this procedure the abdominal aorta is constricted to increase the afterload on the heart and produce pressure overload. […] Rats consumed this diet for 7 days.
# On the 8th day, 5 rats were surgically modeled for pressure overload by constricting the abdominal aorta to a diameter of 0.63 mm with a Weck hemoclip. The other 5 rats were sham operated (anesthetized and the aorta exposed, but not constricted). […] Another group of 10 rats were placed on a standard diet with no supplement and treated in an identical fashion with 5 surgically modeled for pressure overload and 5 sham operated. […] Two weeks after surgery post-sacrifice morphometric measurements are obtained by measuring total heart weight, left ventricle weight, and calculating heart:body weight and left ventricle:body weight ratios to assess cardiac mass and cardiac hypertrophy.
# Post-sacrifice morphometric measurements are obtained by measuring body weight, total heart weight, calculating heart:body weight ratios and heart rate to assess cardiac mass and cardiac hypertrophy.
# [7] = sham-operated Q-fed animals (n=10)
structure (smiles),measurement,setting,value
"O=c1c(O)c(-c2ccc(O)c(O)c2)oc2cc(O)cc(O)c12 [quercetin, 3,5,7,3′,4′-pentahydroxyflavone]",activation of ERK1/2,ERK1/2,reduced
same,"Diastolic blood pressure, Endpoint","[1]; prehypertensive (n=22), baseline 85 ± 1",83 ± 2 mmHg
same,"MAP, Endpoint","[1]; prehypertensive (n=22), baseline 101 ± 1",98 ± 2 mmHg
same,"Systolic blood pressure, Endpoint","[1]; prehypertensive (n=22), baseline 133 ± 2",128 ± 3 mmHg
same,quercetin induced-lowering of systolic blood pressure,[1]; prehypertensive,−5.2 mmHg
same,"Diastolic blood pressure, Endpoint","[1]; stage 1 hypertensive (n=22), baseline 97 ± 1",92 ± 2 mmHg
same,"MAP, Endpoint","[1]; stage 1 hypertensive (n=22), baseline 113 ± 1",108 ± 2 mmHg
same,"Systolic blood pressure, Endpoint","[1]; stage 1 hypertensive (n=22), baseline 145 ± 2",138 ± 2 mmHg
same,quercetin induced-lowering of systolic blood pressure,[1]; stage 1 hypertensive,−7.2 mmHg
same,carryover antihypertensive effect: mean arterial pressure at baseline of quercetin phase vs placebo phase,[1]; subjects that received quercetin treatment first,No differences were found
same,hypertensive response to i.v. administration of angiotensin II,[2],significantly blunted the hypertensive response
same,"Activation of PKC α, βI, ε, or δ isoforms","PKC α, βI, ε, δ",no significant differences
same,"fasting plasma PAR, quercetin supplementation vs. placebo",[3]; both groups of hypertensive subjects,not altered
same,"PAR, Endpoint","[3]; prehypertensive (n=10), baseline 279 ± 48",266 ± 32 pg/mL
same,"PAR, Endpoint","[3]; stage 1 hypertensive (n=8), baseline 258 ± 55",281 ± 74 pg/mL
same,maximal ACh-evoked relaxation,"[4]; AAC-Q rats (n=9), untreated AAC 30±3",44±3%
same,SNP-evoked relaxation,"[4]; AAC-Q rats (n=9), untreated AAC 56±3",71±4%
same,SNP-evoked relaxation,[4]; [7],71±5%
same,maximal ACh-evoked relaxation,[4]; [7],38±4%
same,adverse effects,"[5]; 730 mg quercetin/day, 4 weeks, during the course of the study",No adverse effects
same,Heart rate,[5]; throughout the study (data not shown),unchanged
same,Heart wt.,[6]; AAC + Q (n = 9),1.18 ± 0.03^b g
same,cardiac hypertrophy,"[6]; AAC-Q rats compared with AAC and sham rats, two weeks after surgery",lower level of cardiac hypertrophy; also recorded: levels of hypertrophy in between S and AAC rats
same,Heart wt.,[6]; Sham + Q (n = 10),1.01 ± 0.03^a g
